Test results as given in ChEMBL document CHEMBL3112460, “Successful reduction of off-target hERG toxicity by structural modification of a T-type calcium channel blocker” (Bioorg Med Chem Lett, 2014).

Legend:
[1] = target: Voltage-gated inwardly rectifying potassium channel KCNH2 (Homo sapiens, UniProt Q12809); assay: Inhibition of human ERG by whole-cell patch clamp method
[2] = target: Voltage-dependent T-type calcium channel subunit alpha-1G (Homo sapiens, UniProt O43497); assay: Inhibition of T-type calcium channel subunit alpha-1G (unknown origin) expressed in HEK293 cells assessed as inactivation of channel current at holding potential of 30 to 100mV by whole-cell patch clamp method; assay type: cell-based
HEK293 [3] = assay: Selectivity ratio of IC50 for human ERG to IC50 for T-type calcium channel subunit alpha-1G (unknown origin) expressed in human HEK293 cells; assay type: cell-based
[4] = Tmax in Sprague-Dawley rat at 10 mg/kg, po; assay type: ADME, organism-based; design: dose 10 mg/kg, route oral; details: in vivo
[5] = AUC (0 to infinity) in Sprague-Dawley rat at 10 mg/kg, iv; assay type: ADME, organism-based; design: time infinity, dose 10 mg/kg, route intravenous; details: plasma
[6] = Cmax in Sprague-Dawley rat at 10 mg/kg, po; assay type: ADME, organism-based; design: dose 10 mg/kg, route oral; details: in vivo
[7] = AUC (0 to infinity) in Sprague-Dawley rat at 10 mg/kg, po; assay type: ADME, organism-based; design: time infinity, dose 10 mg/kg, route oral; details: plasma
HEK293 [8] = assay: Selectivity ratio of IC50 for L-type calcium channel subunit-1C (unknown origin) to IC50 for T-type calcium channel subunit alpha-1G (unknown origin) expressed in HEK293 cells; assay type: cell-based; details: Homo sapiens
[9] = Half life in Sprague-Dawley rat at 10 mg/kg, po; assay type: ADME, organism-based; design: dose 10 mg/kg, route oral; details: in vivo
Plasma = assay: Metabolic stability in rat plasma after 2 hrs; assay type: ADME, cell-free
[10] = Half life in human microsomes; assay type: ADME, Microsome
[11] = Half life in Sprague-Dawley rat at 10 mg/kg, iv; assay type: ADME, organism-based; design: dose 10 mg/kg, route intravenous; details: in vivo
[12] = target: Voltage-dependent L-type calcium channel subunit alpha-1C (Homo sapiens, UniProt Q13936); assay: Inhibition of L-type calcium channel subunit-1C (unknown origin) expressed in HEK293 cells by whole-cell patch clamp method; assay type: cell-based
[13] = Bioavailability in Sprague-Dawley rat at 10 mg/kg, […]; assay type: ADME, organism-based; details: in vivo

Voltage-dependent T-type calcium channel subunit alpha-1G, sequence (O43497 whole entry): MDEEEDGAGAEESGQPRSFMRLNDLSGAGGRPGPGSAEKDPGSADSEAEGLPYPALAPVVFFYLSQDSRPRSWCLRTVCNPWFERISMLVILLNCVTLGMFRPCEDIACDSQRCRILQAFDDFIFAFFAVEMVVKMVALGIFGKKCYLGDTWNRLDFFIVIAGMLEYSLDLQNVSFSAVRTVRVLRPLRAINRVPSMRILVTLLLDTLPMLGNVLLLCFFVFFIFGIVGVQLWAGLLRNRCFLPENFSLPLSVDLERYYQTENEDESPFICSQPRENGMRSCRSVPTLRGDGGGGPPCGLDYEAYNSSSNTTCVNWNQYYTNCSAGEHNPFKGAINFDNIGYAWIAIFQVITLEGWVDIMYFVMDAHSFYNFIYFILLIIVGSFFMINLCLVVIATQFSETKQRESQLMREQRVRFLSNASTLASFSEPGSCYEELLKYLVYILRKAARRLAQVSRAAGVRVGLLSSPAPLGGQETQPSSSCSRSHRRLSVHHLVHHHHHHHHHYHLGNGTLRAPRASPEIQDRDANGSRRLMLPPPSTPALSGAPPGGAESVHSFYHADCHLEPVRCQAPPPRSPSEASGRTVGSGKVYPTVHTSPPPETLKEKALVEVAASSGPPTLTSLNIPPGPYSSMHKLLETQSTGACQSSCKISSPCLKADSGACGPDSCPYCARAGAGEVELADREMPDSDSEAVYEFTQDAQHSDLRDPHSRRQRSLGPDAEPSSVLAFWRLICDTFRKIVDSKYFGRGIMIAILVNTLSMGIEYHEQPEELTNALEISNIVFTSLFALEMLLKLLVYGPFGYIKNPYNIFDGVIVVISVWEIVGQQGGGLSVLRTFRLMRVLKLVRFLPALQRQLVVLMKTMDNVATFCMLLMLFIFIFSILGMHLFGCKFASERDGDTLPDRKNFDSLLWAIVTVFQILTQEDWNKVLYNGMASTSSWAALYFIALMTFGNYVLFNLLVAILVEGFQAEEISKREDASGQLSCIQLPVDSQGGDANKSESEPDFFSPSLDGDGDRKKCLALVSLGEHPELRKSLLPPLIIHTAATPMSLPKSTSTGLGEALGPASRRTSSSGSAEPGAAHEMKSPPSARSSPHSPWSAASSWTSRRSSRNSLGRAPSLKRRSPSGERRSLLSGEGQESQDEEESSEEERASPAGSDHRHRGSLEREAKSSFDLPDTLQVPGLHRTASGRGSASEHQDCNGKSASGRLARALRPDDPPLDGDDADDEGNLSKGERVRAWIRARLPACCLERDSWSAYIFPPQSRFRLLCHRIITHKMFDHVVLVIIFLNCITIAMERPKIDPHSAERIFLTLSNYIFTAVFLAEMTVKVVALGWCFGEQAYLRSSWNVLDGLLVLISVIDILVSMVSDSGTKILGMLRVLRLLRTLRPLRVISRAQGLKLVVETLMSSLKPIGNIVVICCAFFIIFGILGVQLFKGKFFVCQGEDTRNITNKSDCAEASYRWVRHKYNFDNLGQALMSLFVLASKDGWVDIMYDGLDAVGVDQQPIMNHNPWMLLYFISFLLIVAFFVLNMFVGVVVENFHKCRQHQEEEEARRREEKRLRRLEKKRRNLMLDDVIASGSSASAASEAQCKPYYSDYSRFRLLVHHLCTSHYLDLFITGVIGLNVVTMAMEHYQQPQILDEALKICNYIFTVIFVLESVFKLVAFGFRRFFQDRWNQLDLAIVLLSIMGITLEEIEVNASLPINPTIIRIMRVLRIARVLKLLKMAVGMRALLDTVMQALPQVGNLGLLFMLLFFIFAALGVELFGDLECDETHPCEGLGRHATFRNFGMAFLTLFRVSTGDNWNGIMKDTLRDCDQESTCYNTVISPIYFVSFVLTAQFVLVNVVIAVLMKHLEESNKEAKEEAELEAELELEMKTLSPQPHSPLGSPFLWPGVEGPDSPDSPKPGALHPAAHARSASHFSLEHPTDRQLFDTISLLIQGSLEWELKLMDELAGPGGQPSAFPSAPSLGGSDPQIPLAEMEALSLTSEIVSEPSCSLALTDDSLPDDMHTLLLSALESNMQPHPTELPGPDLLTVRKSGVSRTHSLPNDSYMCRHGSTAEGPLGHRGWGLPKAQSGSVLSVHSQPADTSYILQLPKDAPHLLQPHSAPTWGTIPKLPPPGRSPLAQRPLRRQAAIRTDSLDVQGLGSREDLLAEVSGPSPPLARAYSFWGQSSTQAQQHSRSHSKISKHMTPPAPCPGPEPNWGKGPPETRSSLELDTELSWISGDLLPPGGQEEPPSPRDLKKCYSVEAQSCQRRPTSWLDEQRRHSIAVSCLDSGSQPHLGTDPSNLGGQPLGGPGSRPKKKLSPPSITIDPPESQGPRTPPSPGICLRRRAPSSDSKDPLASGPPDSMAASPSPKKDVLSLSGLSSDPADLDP
Voltage-gated inwardly rectifying potassium channel KCNH2, sequence (Q12809 whole entry): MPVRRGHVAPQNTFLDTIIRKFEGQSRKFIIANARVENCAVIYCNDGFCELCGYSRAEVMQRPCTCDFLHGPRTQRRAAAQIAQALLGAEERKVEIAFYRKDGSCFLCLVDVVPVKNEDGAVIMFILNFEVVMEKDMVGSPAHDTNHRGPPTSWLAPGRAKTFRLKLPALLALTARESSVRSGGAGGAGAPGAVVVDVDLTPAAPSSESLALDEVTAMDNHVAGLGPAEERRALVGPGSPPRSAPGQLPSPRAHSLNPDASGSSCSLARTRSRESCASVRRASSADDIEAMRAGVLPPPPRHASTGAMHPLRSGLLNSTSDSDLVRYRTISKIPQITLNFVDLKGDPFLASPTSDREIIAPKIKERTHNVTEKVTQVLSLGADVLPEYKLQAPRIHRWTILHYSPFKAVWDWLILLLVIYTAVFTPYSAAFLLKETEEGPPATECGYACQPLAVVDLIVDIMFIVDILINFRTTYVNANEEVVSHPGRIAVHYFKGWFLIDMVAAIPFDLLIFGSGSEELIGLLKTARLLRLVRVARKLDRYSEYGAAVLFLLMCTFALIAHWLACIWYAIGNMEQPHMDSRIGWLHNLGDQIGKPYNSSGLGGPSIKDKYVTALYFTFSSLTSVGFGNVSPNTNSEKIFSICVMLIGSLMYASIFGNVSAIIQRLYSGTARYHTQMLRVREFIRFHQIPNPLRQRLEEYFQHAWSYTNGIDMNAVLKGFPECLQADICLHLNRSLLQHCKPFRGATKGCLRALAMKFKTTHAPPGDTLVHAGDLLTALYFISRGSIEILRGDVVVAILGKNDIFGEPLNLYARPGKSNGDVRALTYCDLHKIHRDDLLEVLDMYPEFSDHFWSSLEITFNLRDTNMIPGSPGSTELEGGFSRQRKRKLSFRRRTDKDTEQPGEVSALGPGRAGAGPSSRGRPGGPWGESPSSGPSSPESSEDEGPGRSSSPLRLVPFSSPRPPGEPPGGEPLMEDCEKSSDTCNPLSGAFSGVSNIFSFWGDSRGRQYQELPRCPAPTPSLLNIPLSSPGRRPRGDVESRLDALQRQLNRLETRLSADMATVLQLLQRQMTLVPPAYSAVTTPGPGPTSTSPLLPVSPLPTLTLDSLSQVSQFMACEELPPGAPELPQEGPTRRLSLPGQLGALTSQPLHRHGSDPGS

Structure (SMILES) | IC50 [2] [nM] | Tmax [4] [h] | AUC(0-inf) [5] [ng·h/mL] | Cmax [6] [ng/mL] | AUC(0-inf) [7] [ng·h/mL] | half-life [9] [h] | Stability (Plasma) | half-life [10] [h] | half-life [11] [h] | IC50 [12] [nM] | bioavailability [13] [%] | IC50 [1] [nM] | Ratio IC50 (HEK293 [3]) | Ratio IC50 (HEK293 [8])
COc1ccccc1N1CCN(CCCC(C(=O)O)(c2ccc(Br)cc2)C(C)C)CC1 (stereo unspecified) | 3260 |  |  |  |  |  |  |  |  |  |  | 3960 |  | 
COC(=O)C(CCCN(C)CCCc1nc2ccccc2[nH]1)(c1ccc(Br)cc1)C(C)C (stereo unspecified) |  |  | 906 |  |  |  | Stable | 2 | 1.3 |  |  |  |  | 
COC(=O)C(CCCN1CC=C(c2ccccc2OC)CC1)(c1ccc(Br)cc1)C(C)C (stereo unspecified) | 3240 |  |  |  |  |  |  |  |  |  |  | 1260 |  | 
COC(=O)C(CCCN1CCC(c2ccccc2OC)CC1)(c1ccc(Br)cc1)C(C)C (stereo unspecified) | 2650 |  |  |  |  |  |  |  |  |  |  |  |  | 

Continued, in another order:

IC50 [2] [nM] | Tmax [4] [h] | AUC(0-inf) [5] [ng·h/mL] | Cmax [6] [ng/mL] | AUC(0-inf) [7] [ng·h/mL] | half-life [9] [h] | Stability (Plasma) | half-life [10] [h] | half-life [11] [h] | IC50 [12] [nM] | bioavailability [13] [%] | Structure (SMILES) | IC50 [1] [nM] | Ratio IC50 (HEK293 [3]) | Ratio IC50 (HEK293 [8])
56 | 0.5 | 9620 | 4580 | 5800 | 0.795 | Stable | 4 | 1.76 | 5420 | 60.3 | COC(=O)C(CCC(=O)N(C)CCCc1nc2ccccc2[nH]1)(c1ccc(Br)cc1)C(C)C (stereo unspecified) | 12500 | > 220 | 96.8
1360 |  |  |  |  |  |  |  |  |  |  | CC(C)C(CCCN(C)CCCc1nc2ccccc2[nH]1)(C(=O)O)c1ccc(Br)cc1 (stereo unspecified) | 2340 |  | 
654 | 0.5 | 5080 | 218 | 467 | 2.21 | Stable | 3.67 | 4.9 | 5900 | 9.2 | COC(=O)C(CCC(=O)N1CCN(c2ccccc2OC)CC1)(c1ccc(Br)cc1)C(C)C (stereo unspecified) |  |  | 
